The values below are quoted from earlier work in patent publication US20070025948A1, “Dilution-type sterilizer composition” (Dainippon Sumitomo Pharma Co. Ltd, priority 2003, published 2007).

The conditions of data set [1]: 20° C.
For data set [2] the following is noted: hydrophilic-lipophilic balance, from new Surfactant Handbook.

Structures are written as SMILES. Where a name gives a salt, the structure may show the parent alone. Read-outs that look alike come from different tables or passages of the source.

On to `[H]/N=C(\N/C(=N/[H])NCCCCCCNC(=N)NC(=N)Nc1ccc(Cl)cc1)Nc1ccc(Cl)cc1` [Chlorhexidine], for which the solubility in water in data set [1] is reported as 0.08 w/v %.

In the case of `[H]/N=C(\N/C(=N/[H])NCCCCCCNC(=N)NC(=N)Nc1ccc(Cl)cc1)Nc1ccc(Cl)cc1` [chlorhexidine gluconate], the solubility in water result in data set [1] is “not less than 50 w/v %”.

As to `[H]/N=C(\N/C(=N/[H])NCCCCCCNC(=N)NC(=N)Nc1ccc(Cl)cc1)Nc1ccc(Cl)cc1` [chlorhexidine hydrochloride], the solubility in water in data set [1] (hydrochloride) was 0.06 w/v %.

In the case of `CCCCCCCCCCCCOS(=O)(=O)[O-].[Na+]` [sodium lauryl sulfate], the HLB in data set [2] was about 40.

On to `CCCCCCCCCCCCCCCCCC(=O)[O-].[Na+]` [sodium stearate], for which the HLB in data set [2] is recorded as 18.
